From patent US7476764B2, “Phenylcarboxyamides as beta-secretase inhibitors” (Bristol-Myers Squibb Company, priority 2005, dated 2009)
Structures can show the parent of a compound that is named as a salt.

What follows are compounds tested against T1, BACE1 enzyme (Homo sapiens, UniProt P56817) (assay: Radioligand displacement assay with a radiolabeled BACE inhibitor on HEK293-9B.A1 cell homogenate). Details: displacement of 1 nM tritiated radioligand, HEK293-9B.A1 homogenate, pH 5.0, 1.5 hr at 25° C.; read-out: Activity Rating (activity based on IC50 values).
T1 construct: The HEK293-9B.A1 cell line, which overexpresses the BACE1 enzyme, was derived from HEK293 cells; endogenous in cells; washed 48,000 x g pellet of the cell homogenate
T1 sequence (P56817 46-501): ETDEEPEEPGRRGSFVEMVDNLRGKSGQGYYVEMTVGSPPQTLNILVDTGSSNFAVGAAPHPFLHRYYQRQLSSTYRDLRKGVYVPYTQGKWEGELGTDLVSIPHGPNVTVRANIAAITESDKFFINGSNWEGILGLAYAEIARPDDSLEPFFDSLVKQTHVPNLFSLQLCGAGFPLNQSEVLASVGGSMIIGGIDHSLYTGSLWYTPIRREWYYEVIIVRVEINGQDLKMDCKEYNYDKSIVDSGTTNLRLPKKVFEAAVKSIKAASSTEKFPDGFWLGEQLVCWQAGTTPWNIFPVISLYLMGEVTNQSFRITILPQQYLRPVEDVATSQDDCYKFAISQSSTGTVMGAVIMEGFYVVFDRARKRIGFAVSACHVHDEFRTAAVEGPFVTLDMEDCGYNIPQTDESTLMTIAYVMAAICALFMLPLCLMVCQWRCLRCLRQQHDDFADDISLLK
Format: binding
`COc1cccc(CNC[C@@H](O)[C@H](Cc2cc(F)cc(F)c2)NC(=O)c2cc(C(C)=O)cc(C(=O)NC(C)c3ccc(F)cc3)c2)c1` (stereo partly drawn) [Example 47, N^1-((2S,3R)-4-(3-methoxybenzylamino)-1-(3,5-difluorophenyl)-3-hydroxybutan-2-yl)-5-acetyl-N^3-(1-(4-fluorophenyl)ethyl)isophthalamide TFA salt] was tested, and the IC50 was < 100 nM. For `COc1cccc(CNC[C@@H](O)[C@H](Cc2cc(F)cc(F)c2)NC(=O)c2cc(C(=O)NC(C)c3ccc(F)cc3)cc(C(C)O)c2)c1` (stereo partly drawn) [Example 48, N^1-((2S,3R)-4-(3-methoxybenzylamino)-1-(3,5-difluorophenyl)-3-hydroxybutan-2-yl)-N^3-(1-(4-fluorophenyl)ethyl)-5-(1-hydroxyethyl)isophthal-amide TFA salt], the IC50 was < 100 nM. Work on `C=CCO/N=C(/C)c1cc(C(=O)NC(C)c2ccc(F)cc2)cc(C(=O)N[C@@H](Cc2cc(F)cc(F)c2)[C@H](O)CNCc2cccc(OC)c2)c1` (stereo partly drawn) [Example 49, N^1-((2S,3R)-4-(3-methoxybenzylamino)-1-(3,5-difluorophenyl)-3-hydroxybutan-2-yl)-5-((Z)-1-(allyloxyimino)ethyl)-N^3-(1-(4-fluorophenyl)ethyl)isophthalamide TFA salt] yielded an IC50 of 100 to 1000 nM. With `CO/N=C(/C)c1cc(C(=O)NC(C)c2ccc(F)cc2)cc(C(=O)N[C@@H](Cc2cc(F)cc(F)c2)[C@H](O)CNCc2cccc(OC)c2)c1` (stereo partly drawn) [Example 50, N^1-((2S,3R)-4-(3-methoxybenzylamino)-1-(3,5-difluorophenyl)-3-hydroxybutan-2-yl)-N^3-(1-(4-fluorophenyl)ethyl)-5-((Z)-1-(methoxyimino)ethyl)isophthalamide TFA salt] the IC50 was < 100 nM.
